Earlier results, collected in US5179093A, “Quinoline-diones” (Schering Corporation, priority 1991, dated 1993).

Key:
[1] = system: HSV-1; details: U.S. Pat. No. 4,757,088; cited from earlier work
[2] = system: HSV-2; details: U.S. Pat. No. 4,757,088; cited from earlier work
[3] = system: herpes virus; details: U.S. Pat. No. 4,757,088; cited from earlier work
[4] = system: HSV; details: according to Haines et al.; cited from earlier work

CCN(CC)CC(=O)Nc1c(C)cccc1C [lidocaine, 2-(diethylamino)-N-(2,6-dimethylphenyl)acetamide]
antiviral activity in cell culture against HSV-1 [1]: antiviral agent in cell culture against HSV-1 and HSV-2 | antiviral activity in cell culture against HSV-2 [2]: antiviral agent in cell culture against HSV-1 and HSV-2 | ability to treat herpes virus infections of mammals [3]: able to treat herpes virus infections of mammals | treatment of HSV oral and genital lesions in humans [4]: particularly effective
